The record followed here is patent US20150126475A1, “PESTICIDAL COMPOSITION AND METHOD FOR CONTROLLING PESTS” (priority 2012, published 2015).

Holding throughout (assay type): in vivo
Experiment [1] concerns southern root-knot nematode (Meloidogyne incognita). In words: Root knot index on tomato in pots with soil contaminated with southern root-knot nematode (Test Example 1). Set-up: key: visual root knot index, 0 to 100%. Particulars: non-treated = 100. As for the experimental part:
1 Liter of sand soil having paddy soil sterilized by steam and sand mixed in a volume ratio of 1:1 was put into a 1/1,000,000 ha pot, and a predetermined amount of a test compound was added and mixed. Immediately after addition of the compound, 500 mL of soil contaminated with southern root-knot nematode (Meloidogyne incognita) was put in each pot and sufficiently mixed, and then seedling of tomato (cultivar: yellow pear) were transplantated. On the 33rd to 35th day after transplantation, the root knot index (0 to 100%) formed by nematode was visually determined. The test was carried out by two replications.
Further, theoretical values determined by the Colby's formula are shown in brackets ( ) in Tables.

For a further experiment, the system named is common cutworm. Put plainly: Control of common cutworm larvae on leaf of cabbage grown in treated soil (Test Example 3). The note with it: second-instar larvae, 4th day. From the text: (§1) Control value(%)=(1−(number of parasites in treated area)/(number of parasites in non-treated area))×100
Sand soil having sand, non-sterilized soil and sterilized soil mixed in a volume ratio of 1:1:1 was put into a 1/500,000 ha pot, and predetermined amounts of test compounds were sufficiently mixed. Seedlings of cabbage (cultivar: Okina) in 3-leaf stage were transplanted and grown in a greenhouse for 11 days. Then, the fourth leaf of the cabbage was cut, and 10 second-instar larvae of common cutworm were released. On the 4th day, the number of surviving insects was examined, and the control value was determined in the same manner as in Test Example 2. The test was carried out by three replications. Further, theoretical values determined by the Colby's formula are shown in brackets ( ) in Table 5. Further, the combination of fosthiazate and imidacloprid was tested as a Comparative Example.

The next experiment relates to larvae of turnip fly. In words: Field test, damage to Daikon radish root by larvae of turnip fly (Test Example 4). Particulars: 36th day after sowing. As for the experimental part: Granules of fosthiazate and granules of clothianidin were mixed in predetermined active ingredient amounts, and the mixture was spread on the surface of soil of a field and sufficiently mixed by a small rotary. Seeds of Daikon radish were sown, and on the 36th day after sowing, the degree of damage to the root by larvae of turnip fly was examined by degree, and the damage grade was determined in accordance with the following formula. Further, theoretical values determined by the Colby's formula are shown in brackets ( ) in Table 6. Further, the combination of granules of fosthiazate and granules of imidacloprid was tested as a Comparative Example.
Degree of damage (nil: 0, low: 1, middle: 2, high: 3, enormous: 4)
Damage grade={Σ(damage grade index×number of Daikon radish investigated at each degree of damage)/(total number investigated×4)}×100

Another experiment deals with two-spotted spider mite. Put plainly: Control of two-spotted spider mite on eggplant seedlings in pots (Test Example 2). Particulars: 14th day after treatment. As for the experimental part: 1 Liter of sand soil having paddy soil sterilized by steam and sand mixed in a volume ratio of 1:1 was put into a 1/1,000,000 ha pot, and a predetermined amount of a test compound was added and mixed. Seedlings of eggplant (cultivar: Senryo No. 2) in which 30 adults of two-spotted spider mite (greenish yellow) were parasitic were transplanted and grown in a greenhouse for 5 days, and a test compound was applied to each pot. On the 14th day after treatment, the number of two-spotted spider mite parasitic in each pot was examined. The test was carried out by three replications. The test results are shown in Table 4 by the control value (%). Further, theoretical values determined by the Colby's formula are shown in brackets ( ) in Table 4.
Further, the control value (%) was calculated in accordance with the following formula.
as §1

[2] abbreviates: Table 2, single compound 500 g a.i./ha.
[3] abbreviates: Table 3, single compound 5000 g a.i./ha.
Setting [4] is: single compound granules 500 g a.i/ha.
[5] abbreviates: single compound granules 750 g a.i/ha.
The mark [6] stands for this setting: single compound granules 1000 g a.i/ha.
Setting [7] is: Table 1, single compound 5000 g a.i./ha, tomato, 33rd to 35th day.

In experiment [1] (setting [2]), `Cc1c(F)c(F)c(COC(=O)[C@@H]2[C@H](/C=C(\Cl)C(F)(F)F)C2(C)C)c(F)c1F` (racemic) [Tefluthrin, tefluthrin] yielded a Root knot index of 100.
Turning to `O=C(NC(=O)c1c(F)cccc1F)Nc1cc(Cl)c(Oc2ncc(C(F)(F)F)cc2Cl)c(Cl)c1` [Chlorfluazuron, chlorfluazuron], the Root knot index in experiment [1] (setting [3]) was 100.
On the same count and under the same terms, in the case of `O=C(NC(=O)c1c(F)cccc1F)Nc1ccc(Oc2ccc(C(F)(F)F)cc2Cl)cc1F` [Flufenoxuron, flufenoxuron] it was 100.
For `O=[N+]([O-])NC1=NCCN1Cc1ccc(Cl)nc1` [Imidacloprid, imidacloprid], the figures for the Control value in the experiment on common cutworm (single compound 156 g a.i/ha) and in the experiment on common cutworm (single compound 313 g a.i/ha) were 6.7% and 13.3%, respectively. Besides, the Damage degree in the experiment with larvae of turnip fly (setting [4]) came out at 23.2; with larvae of turnip fly (setting [5]) it was 34.7; in the experiment with larvae of turnip fly (setting [6]), 26.3.
In turn, `CCOc1ccc([Si](C)(C)CCCc2ccc(F)c(Oc3ccccc3)c2)cc1` [Silafluofen, silafluofen] showed a Root knot index in experiment [1] (setting [2]) of 100.
For `O=C(NC(=O)c1c(F)cccc1F)Nc1cc(Cl)c(F)c(Cl)c1F` [Teflubenzuron, teflubenzuron], the Root knot index in experiment [1] (setting [3]) turned out to be 100.
Consider `CN/C(=N\[N+](=O)[O-])NCc1cnc(Cl)s1` [clothianidin], for which the Root knot index in experiment [1] (setting [7]) amounted to 99.3. The Control value with two-spotted spider mite (single compound 400 g a.i/ha) is 35%; with two-spotted spider mite (single compound 800 g a.i/ha), 48%; in the experiment on two-spotted spider mite (single compound 1500 g a.i/ha), 22%; in the experiment with common cutworm (single compound 156 g a.i/ha) it was 3.3%; in the experiment on common cutworm (single compound 313 g a.i/ha), 20.0%. Moreover, the results for the Damage degree in the experiment on larvae of turnip fly (setting [4]), in the experiment with larvae of turnip fly (setting [5]) and with larvae of turnip fly (setting [6]) were 20.0, 25.3 and 0, respectively.
`CN/C(=N/CC1CCOC1)N[N+](=O)[O-]` (stereo not shown) [dinotefuran] came in with a Root knot index in experiment [1] (setting [7]) of 97.6.
On to `CCOP(=O)(SC(C)CC)N1CCSC1=O` (stereo not shown) [fosthiazate], for which the Root knot index in experiment [1] (Table 1, single compound 750 g a.i./ha, soil mixing, tomato, 33rd to 35th day) is 35.4; in experiment [1] (Table 2, single compound 750 g a.i./ha) it was 22.0; in experiment [1] (Table 2, single compound 1500 g a.i./ha), 5.0; in experiment [1] (Table 3, single compound 750 g a.i./ha), 15.8. Also, the values for the Control value in the experiment with two-spotted spider mite (single compound 6000 g a.i/ha) and with common cutworm (single compound 6000 g a.i/ha) were 98% and 73.3%, respectively. In addition, the Damage degree in the experiment with larvae of turnip fly (single compound granules 6000 g a.i/ha, Daikon radish field) turned out to be 33.7.
`CN1COCN(Cc2cnc(Cl)s2)/C1=N\[N+](=O)[O-]` [thiamethoxam] displayed a Root knot index in experiment [1] (setting [7]) of 95.7.
